# Results: patent US12331051B2 (priority 2021, dated 2025)
# “Also recorded” adds a separate entry of the source.
# How the values were obtained:
# [1] = target: T1, Alpha 1A adrenergic receptor (Homo sapiens, UniProt P35348); assay: Functional assay in HEK-293 cells (Ca2+ flux); type: cell-based
# T1 construct: expressed in transfected cells; host or cells: HEK-293
# T1 sequence (P35348 1-466): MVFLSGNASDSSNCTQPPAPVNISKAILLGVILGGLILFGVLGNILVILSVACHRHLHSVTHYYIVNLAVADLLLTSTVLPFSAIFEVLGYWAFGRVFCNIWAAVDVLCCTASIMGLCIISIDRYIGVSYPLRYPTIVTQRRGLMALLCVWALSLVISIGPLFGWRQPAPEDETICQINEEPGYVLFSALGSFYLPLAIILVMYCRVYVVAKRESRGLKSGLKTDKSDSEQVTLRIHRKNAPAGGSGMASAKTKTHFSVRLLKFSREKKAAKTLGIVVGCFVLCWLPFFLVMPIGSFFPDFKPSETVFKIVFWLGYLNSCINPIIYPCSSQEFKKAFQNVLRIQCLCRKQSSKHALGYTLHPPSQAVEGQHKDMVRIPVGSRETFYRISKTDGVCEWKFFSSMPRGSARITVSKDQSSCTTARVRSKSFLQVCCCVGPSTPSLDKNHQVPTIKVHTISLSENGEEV
# Protocol: Neuro-receptor binding and functional effects of the “E559 polymorph” was examined by analyzing binding affinity [Ki (nM)], functional agonist activity [EC50 (nM)], and functional antagonist activity [IC50 (nM)] against a panel of key receptors in neurophysiological disorders. Binding and functional assays were performed at “E559 polymorph” concentrations of 0.0003, 0.003, 0.01, 0.03, 0.1, 0.3, 1, and 10 μM. In binding assays, cell membrane homogenates, expressing each receptor target, were incubated with the corresponding radio-ligand in absence or presence of several concentration of the “E559 polymorph” compound. The measurement of binding affinity of the “E559 polymorph” is represented in TABLE XIII by Ki (nM) which was calculated as percent inhibition of the binding of a radioactively labeled reference ligand at each receptor. In functional assays the HEK-293 cells expressing each receptor target were suspended in buffer and distribute in microplates and incubated for 30 minutes at room temperature or 37° C. in the presence of buffer alone (basal control), the reference agonist or antagonist, or the “E559 polymorph. Following incubation, the cells were lysed and the appropriate fluorescent probe (Ca2+ flux, cAMP, or IP1) were added for 60 minutes to measure the fluorescence transfer at the appropriate wavelength using a microplate reader. The cellular agonist effect (EC50) was calculated as a percent of control response to a known reference agonist and the cellular antagonist effect (IC50) was calculated as a percent inhibition of control reference agonist response for each receptor.
# [2] = target: T2, ADRa2C (α2C adrenergic receptor) (Homo sapiens, UniProt P18825); assay: cell-based
# T2 sequence (P18825 1-462): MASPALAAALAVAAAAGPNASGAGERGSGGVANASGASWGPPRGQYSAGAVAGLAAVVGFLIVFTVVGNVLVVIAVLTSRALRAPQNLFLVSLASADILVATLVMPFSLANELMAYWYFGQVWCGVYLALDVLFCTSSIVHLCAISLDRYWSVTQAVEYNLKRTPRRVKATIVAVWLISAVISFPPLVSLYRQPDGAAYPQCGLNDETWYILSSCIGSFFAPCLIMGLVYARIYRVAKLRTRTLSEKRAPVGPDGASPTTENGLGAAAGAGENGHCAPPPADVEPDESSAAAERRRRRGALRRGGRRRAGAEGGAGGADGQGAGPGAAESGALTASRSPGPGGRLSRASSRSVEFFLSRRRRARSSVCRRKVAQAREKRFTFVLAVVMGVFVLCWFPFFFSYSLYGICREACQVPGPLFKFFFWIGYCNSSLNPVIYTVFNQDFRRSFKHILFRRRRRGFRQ
# [3] = system: 5-HT1 receptor subtypes: 5-HT1A, 1B, 1D, 1E, and 1F; type: cell-based, human; details: FIG. 15, FIG. 16A/B; listed as E559 polymorph
# [4] = system: cultured primary rat neurons; assay: Cell viability, Neurite Outgrowth Staining Kit; type: cell-based; details: DIV 6, all tested concentrations
# Protocol: The ability of the “E559 polymorph” to induce neural plasticity was evaluated in vitro. In vitro dendritogenesis and spinogenesis assays were conducted using primary rat embryonic cortical neurons. Briefly, cultured primary cortical neurons (rat) were treated at day in vitro (DIV) 3 for 3 hours with increasing concentrations (1, 10 and 100 nM, 1 and […]) of the “E559 polymorph” and morphological changes in dendritic arbor complexity (dendritogenesis) were assessed at DIV6 by immunofluorescent staining of fixed neurons with microtubule-associated protein 2 (MAP2, a microtubule marker), F-actin (cytoskeletal marker), and phalloidin (actin filament marker) followed by fluorescent microscopy and Sholl analysis of neurons' images. […] The spine density assessments (spinogenesis) were made on DIV 18. The cell viability assessments were made on DIV 6 by using the Neurite Outgrowth Staining Kit which includes fluorescent probes for dead and live neuronal cells. Ketamine was used as a comparator and positive control. Ketamine is known to induce dendritogenesis and its effects on synaptic plasticity are believed to mediate its antidepressant effects (Aguilar-Valles et al., Nature, 2021, 590, p315-319). Representative images of MAP2 stained rat cortical neurons treated with vehicle (no drug control) or with “E559 polymorph” is shown in FIG. 18A.
smiles,measurement,setting,value
"CCN(CC)C(=O)[C@@H]1C=C2c3cccc4[nH]c(Br)c(c34)C[C@H]2N(C)C1 [E559, (5R, 8R)-2-Bromo-9,10-didehydro-N,N-diethyl-6-methylergoline-8-carboxamide hemi-D-tartrate]",EC50,[1],51 nM
same,IC50,[1],> 10000 nM
same,EC50,[2],10.3 nM
same,Emax,[2],40.5%
same,Kb,[2],16 nM
same,functional activity at 5-HT1 receptor subtypes,[3],moderate to potent agonist across all the 5-HT1 receptor subtypes; also recorded: exhibits the greatest potency (agonism) at 5-HT1F and 5-HT1D receptors
same,viability of cultured primary rat neurons (cytotoxic activity),[4],no cytotoxic activity was observed at all tested concentrations
